# In publication PMC6502651 (ChemMedChem, 2019):
# Values joined by “and” are separate entries in the source; they are usually repeats but may differ in a detail not shown here. Identical values can stand only once. Like-named read-outs stand apart in the source and are kept apart here.
# What was measured:
# [1] = system: mature stage V P. falciparum gametocytes; assay: Gametocytocidal activity; assay type: cell-based; settings: Plasmodium falciparum, NF54, 48 h, read-out: Pf stage V gametocytes IC50
# human HDAC6 (hHDAC6) = biological target: T1, human HDAC6 (hHDAC6) (Homo sapiens, UniProt Q9UBN7); assay: In vitro testing on hHDAC6
# T1 sequence (Q9UBN7 1-1215): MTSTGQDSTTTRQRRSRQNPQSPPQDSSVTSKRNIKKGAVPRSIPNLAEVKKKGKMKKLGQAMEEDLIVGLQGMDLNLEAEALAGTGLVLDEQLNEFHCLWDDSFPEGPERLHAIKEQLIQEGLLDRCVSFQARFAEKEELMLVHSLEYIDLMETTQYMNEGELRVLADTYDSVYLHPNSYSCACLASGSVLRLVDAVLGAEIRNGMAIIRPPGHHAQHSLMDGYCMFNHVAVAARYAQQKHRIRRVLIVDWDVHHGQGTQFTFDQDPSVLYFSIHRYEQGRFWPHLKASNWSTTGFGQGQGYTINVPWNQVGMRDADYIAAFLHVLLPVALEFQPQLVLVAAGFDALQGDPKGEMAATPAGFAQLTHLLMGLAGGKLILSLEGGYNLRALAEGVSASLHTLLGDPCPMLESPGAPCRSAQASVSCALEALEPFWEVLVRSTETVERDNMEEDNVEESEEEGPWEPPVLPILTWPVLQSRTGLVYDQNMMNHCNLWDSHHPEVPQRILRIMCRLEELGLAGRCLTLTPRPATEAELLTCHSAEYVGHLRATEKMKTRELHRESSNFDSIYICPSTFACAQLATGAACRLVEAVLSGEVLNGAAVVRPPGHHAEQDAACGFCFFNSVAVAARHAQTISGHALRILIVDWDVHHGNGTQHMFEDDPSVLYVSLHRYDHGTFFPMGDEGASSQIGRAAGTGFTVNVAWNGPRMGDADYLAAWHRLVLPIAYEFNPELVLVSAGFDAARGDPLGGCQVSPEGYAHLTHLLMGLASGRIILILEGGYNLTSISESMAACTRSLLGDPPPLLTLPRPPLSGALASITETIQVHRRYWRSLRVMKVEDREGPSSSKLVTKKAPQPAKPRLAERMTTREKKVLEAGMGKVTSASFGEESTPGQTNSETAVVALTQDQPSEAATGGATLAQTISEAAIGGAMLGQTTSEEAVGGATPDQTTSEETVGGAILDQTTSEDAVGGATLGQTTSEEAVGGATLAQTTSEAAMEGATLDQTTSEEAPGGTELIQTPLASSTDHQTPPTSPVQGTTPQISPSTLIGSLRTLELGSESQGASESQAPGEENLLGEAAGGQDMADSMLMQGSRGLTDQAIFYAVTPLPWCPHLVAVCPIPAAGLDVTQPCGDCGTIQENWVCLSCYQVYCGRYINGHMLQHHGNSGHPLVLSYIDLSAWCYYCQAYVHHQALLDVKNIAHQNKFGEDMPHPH
# [2] = system: 3D7 line of P. falciparum; assay: P. falciparum asexual intraerythrocytic growth inhibition; assay type: cell-based; settings: for Selectivity index (SI) = (mammalian cell IC50)/(P. falciparum IC50): HepG2 vs Pf3D7
# human HDAC1 (hHDAC1) [3] = biological target: T2, human HDAC1 (hHDAC1) (Homo sapiens, UniProt Q13547); assay: In vitro testing on hHDAC1
# HepG2 cells = assay: HepG2 cytotoxicity bioluminescence assay; assay type: cell-based; settings: Homo sapiens, HepG2, 48 h, read-out: IC50 (HepG2)
# [4] = system: P. berghei exo-erythrocytic forms; assay: P. berghei-Luc liver stage assay; assay type: cell-based; settings: for Selectivity index (SI) = (mammalian cell IC50)/(Pb EEF IC50): HepG2 vs Pb EEF; for IC50: Plasmodium berghei, 48 h, read-out: Pb EEF IC50
# human HDAC1 (hHDAC1) [5] = biological target: T2, human HDAC1 (hHDAC1); settings: read-out: hHDAC1 IC50; reference HDACi; ref [22]–[23]; cited from earlier work
# P. falciparum histone H4 = assay: Protein hyperacetylation assay; assay type: cell-based; settings: trophozoite-stage Pf 3D7, 3 h, 5x IC50
# [6] = Plasmodium falciparum, 3D7, read-out: IC50 (Pf3D7), asexual intraerythrocytic stage P. falciparum 3D7
# [7] = Plasmodium falciparum, 3D7, read-out: IC50 (Pf3D7)
# T2 sequence (Q13547 whole entry): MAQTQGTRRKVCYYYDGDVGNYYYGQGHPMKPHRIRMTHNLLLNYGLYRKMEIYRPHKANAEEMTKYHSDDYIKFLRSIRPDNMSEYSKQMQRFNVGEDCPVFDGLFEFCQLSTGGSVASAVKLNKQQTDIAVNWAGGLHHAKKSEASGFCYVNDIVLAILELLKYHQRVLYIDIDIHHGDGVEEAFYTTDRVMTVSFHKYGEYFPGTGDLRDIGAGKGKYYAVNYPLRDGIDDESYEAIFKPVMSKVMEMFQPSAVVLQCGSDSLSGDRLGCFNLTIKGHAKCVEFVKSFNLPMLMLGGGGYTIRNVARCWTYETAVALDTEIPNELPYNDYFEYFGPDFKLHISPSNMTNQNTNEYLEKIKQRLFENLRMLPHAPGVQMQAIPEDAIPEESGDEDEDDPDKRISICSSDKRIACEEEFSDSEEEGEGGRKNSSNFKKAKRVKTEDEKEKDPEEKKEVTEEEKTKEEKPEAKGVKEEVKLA
Compound,IC50 [1] [nM],IC50 (human HDAC6 (hHDAC6)) [nM],Selectivity index (SI) = hHDAC1/hHDAC6 (human HDAC6 (hHDAC6)),"IC50 [2, 6] [nM]",IC50 (human HDAC1 (hHDAC1) [3]) [nM],IC50 (HepG2 cells) [nM],Selectivity index (SI) = (mammalian cell IC50)/(Pb EEF IC50) [4],IC50 [4] [nM],Selectivity index (SI) = (mammalian cell IC50)/(P. falciparum IC50) [2],"IC50 [2, 7] [nM]","IC50 ([2]; read-out: IC50 (Pf3D7), asexual intraerythrocytic stage P. falciparum 3D7) [nM]",IC50 (human HDAC1 (hHDAC1) [5]) [nM],histone acetylation compared to the vehicle control (in words) (P. falciparum histone H4)
"CN(C)c1ccc(C(=O)N(Cc2ccc(C(=O)NO)cc2)C(C(=O)NC2CCCCC2)c2ccccc2)cc1 (racemic) [Compound 2d, rac-N-(2-(Cyclohexylamino)-2-oxo-1-phenylethyl)-4-(dimethylamino)-N-(4-(hydroxycarbamoyl)benzyl)benzamide]",14800,64,13,390,840,> 50000,>3,19300,–,–,–,–,–
"CN(C)c1ccc(C(=O)N(Cc2ccc(C(=O)NO)cc2)C(C)(C)C(=O)NC2CCCCC2)cc1 [Compound 2c, N-(1-(Cyclohexylamino)-2-methyl-1-oxopropan-2-yl)-4-(dimethylamino)-N-(4-(hydroxycarbamoyl)benzyl)benzamide]",16300,89,5,95,450,> 50000,>3,20100,–,–,–,–,–
"Cc1ccccc1C(=O)N(CC(=O)NC(C)(C)C)Cc1ccc(C(=O)NO)cc1 [Compound 2e, N-(2-(tert-Butylamino)-2-oxoethyl)-N-(4-(hydroxycarbamoyl)benzyl)-2-methylbenzamide]",–,–,47,–,–,> 50000,>5,9700,–,–,–,–,–
"COc1ccccc1C(=O)N(CC(=O)NC(C)(C)C)Cc1ccc(C(=O)NO)cc1 [Compound 2f, N-(2-(tert-Butylamino)-2-oxoethyl)-N-(4-(hydroxycarbamoyl)benzyl)-2-methoxybenzamide]",–,–,82,110 to 250,–,> 50000,>2,26700,–,–,–,–,–
"CC(C)(C)c1ccc(C(=O)N(CC(=O)NCc2ccccc2)Cc2ccc(C(=O)NO)cc2)cc1 [Compound 2g, N-(2-(Benzylamino)-2-oxoethyl)-4-(tert-butyl)-N-(4-(hydroxycarbamoyl)benzyl)benzamide]",–,71,<1,–,34,5000 to 13000,23,580,889–1483,5.2 to 8.8,–,–,–
"CC(C)c1ccc(C(=O)N(CC(=O)NCc2ccccc2)Cc2ccc(C(=O)NO)cc2)cc1 [Compound 2h, N-(2-(Benzylamino)-2-oxoethyl)-N-(4-(hydroxycarbamoyl)benzyl)-4-isopropylbenzamide]",–,51,<1,5.2 to 8.8,19,5000 to 13000,289,16,889–1483 and 889,–,5.2,–,–
"CN(C)c1ccc(C(=O)N(CC(=O)NCc2ccccc2)Cc2ccc(C(=O)NO)cc2)cc1 [Compound 2i, N-(2-(Benzylamino)-2-oxoethyl)-4-(dimethylamino)-N-(4-(hydroxycarbamoyl)benzyl)benzamide]",–,–,<1,–,7.7,620,28,22,64,–,–,–,–
"COc1ccc(CNC(=O)CN(Cc2ccc(C(=O)NO)cc2)C(=O)c2cc(C)cc(C)c2)cc1 [Compound 2l, N-(4-(Hydroxycarbamoyl)benzyl)-N-(2-((4-methoxybenzyl)amino)-2-oxoethyl)-3,5-dimethylbenzamide]",10200,–,–,–,–,–,34,570,–,–,–,–,–
"Cc1cc(C)cc(CNC(=O)CN(Cc2ccc(C(=O)NO)cc2)C(=O)c2cc(C)cc(C)c2)c1 [Compound 2p, N-(2-((3,5-Dimethylbenzyl)amino)-2-oxoethyl)-N-(4-(hydroxycarbamoyl)benzyl)-3,5-dimethylbenzamide]",5270,–,–,–,–,–,35,580,–,–,–,–,–
"CNC(=O)CN(Cc1ccc(C(=O)NO)cc1)C(=O)c1cc(C)cc(C)c1 [Compound 2s, N-(4-(Hydroxycarbamoyl)benzyl)-3,5-dimethyl-N-(2-(methylamino)-2-oxoethyl)benzamide]",16800,44,7,54,290,48000,7,7170,889,–,–,–,–
"CNC(=O)CN(Cc1ccc(C(=O)NO)cc1)C(=O)c1ccccc1C [Compound 2t, N-(4-(Hydroxycarbamoyl)benzyl)-2-methyl-N-(2-(methylamino)-2-oxoethyl)benzamide]",–,32,63,54 to 120,2010,> 50000,>2,28000,> 704,–,–,–,–
O=C(NO)c1ccc(CC(=O)N(CCO)c2ccccc2)cc1 [HPOB],–,–,–,–,–,–,–,–,–,–,–,2100,–
"O=C(CCCCCCC(=O)Nc1ccccc1)NO [SAHA, vorinostat, reference compound]",–,–,–,–,–,–,–,–,–,170,–,–,significantly increased acetylation
